In PMC5546919 (The Journal of organic chemistry, 2010):

Legend:
Assay type in all cases: biochemical
[1] = target: T1, human 20S proteasome, trypsin-like (T-L) activity (Homo sapiens, UniProt Q99436); assay: Proteasome-Glo luminogenic assay, T-L substrate
T1 sequence (Q99436 44-277): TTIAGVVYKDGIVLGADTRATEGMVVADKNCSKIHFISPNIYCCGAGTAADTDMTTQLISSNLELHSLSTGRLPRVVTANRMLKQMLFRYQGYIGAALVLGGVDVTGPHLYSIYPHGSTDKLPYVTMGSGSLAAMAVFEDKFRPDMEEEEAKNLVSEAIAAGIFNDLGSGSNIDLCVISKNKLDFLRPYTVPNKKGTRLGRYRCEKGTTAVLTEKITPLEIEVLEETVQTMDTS

[2] = target: T2, human 26S proteasome, chymotrypsin-like (CT-L) activity (Homo sapiens, UniProt P28074); assay: Proteasome-Glo luminogenic assay, CT-L substrate
T2 sequence (P28074 60-263): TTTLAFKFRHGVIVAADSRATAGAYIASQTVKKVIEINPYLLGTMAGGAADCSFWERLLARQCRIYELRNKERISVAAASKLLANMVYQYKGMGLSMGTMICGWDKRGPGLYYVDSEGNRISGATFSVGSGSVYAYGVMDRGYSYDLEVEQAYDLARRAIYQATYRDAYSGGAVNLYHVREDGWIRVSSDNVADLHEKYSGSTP

[3] = target: T3, human 20S proteasome, caspase-like (C-L) activity (Homo sapiens, UniProt P28072); assay: Proteasome-Glo luminogenic assay, C-L substrate
T3 sequence (P28072 35-239): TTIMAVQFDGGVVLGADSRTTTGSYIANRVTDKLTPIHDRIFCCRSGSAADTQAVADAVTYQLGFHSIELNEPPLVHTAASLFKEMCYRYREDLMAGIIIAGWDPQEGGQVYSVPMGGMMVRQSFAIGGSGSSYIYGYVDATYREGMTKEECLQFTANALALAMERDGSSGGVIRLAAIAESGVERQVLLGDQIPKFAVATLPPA

[4] = target: T4, human 20S proteasome, chymotrypsin-like (CT-L) activity (Homo sapiens, UniProt P28074); assay: Proteasome-Glo luminogenic assay, CT-L substrate
T4 sequence (P28074 60-263): T2 sequence (P28074 60-263)

[5] = target: T5, human 26S proteasome, caspase-like (C-L) activity (Homo sapiens, UniProt P28072); assay: Proteasome-Glo luminogenic assay, C-L substrate
T5 sequence (P28072 35-239): T3 sequence (P28072 35-239)

[6] = target: T6, human 26S proteasome, trypsin-like (T-L) activity (Homo sapiens, UniProt Q99436); assay: Proteasome-Glo luminogenic assay, T-L substrate
T6 sequence (Q99436 44-277): T1 sequence (Q99436 44-277)

| SMILES | IC50 [1] [nM] | IC50 [2] [nM] | IC50 [3] [nM] | IC50 [4] [nM] | IC50 [5] [nM] | IC50 [6] [nM] |
| --- | --- | --- | --- | --- | --- | --- |
| CCCCCCC1C(=O)NC2(C(O)C3C=CCCC3)C(=O)OC12C (racemic) [(±)-2, rac-cinnabaramide A] | 260 ± 29 | 2.2 ± 0.04 | 125 ± 12 | 2.8 ± 0.6 | – | – |
| C[C@@]12OC(=O)[C@]1([C@@H](O)[C@@H]1C=CCCC1)NC(=O)[C@@H]2CCCl [1a, (−)-salino A] | 39 ± 7 | – | 111 ± 22 | – | 156 ± 18 | 37 ± 16 |
| C[C@@]12OC(=O)[C@]1([C@@H](O)[C@@H]1C=CCCC1)NC(=O)[C@@H]2CCCCl [compound 54, (−)-homosalino] | 118 ± 28 | – | 144 ± 12 | – | 188 ± 3 | 125 ± 30 |
